This is an account of results in ChEMBL document CHEMBL4043239, “Discovery and optimization of oxadiazole-based FLAP inhibitors” (Bioorg Med Chem Lett, 2017).

pIC50: −log10 of the molar value. ≈ marks a conversion by molar mass, not a printed value.

Data set [1] deals with T1, hERG (KCNH2) (Homo sapiens, UniProt Q12809). Kind of data set: Inhibition of human ERG expressed in CHO cells at 34 uM at -70mV holding potential measured after 300 secs by IonWorks electrophysiology method relative to control. Format: cell-based. Particulars: CHO cells expressing human ERG.
T1 sequence (Q12809 whole entry): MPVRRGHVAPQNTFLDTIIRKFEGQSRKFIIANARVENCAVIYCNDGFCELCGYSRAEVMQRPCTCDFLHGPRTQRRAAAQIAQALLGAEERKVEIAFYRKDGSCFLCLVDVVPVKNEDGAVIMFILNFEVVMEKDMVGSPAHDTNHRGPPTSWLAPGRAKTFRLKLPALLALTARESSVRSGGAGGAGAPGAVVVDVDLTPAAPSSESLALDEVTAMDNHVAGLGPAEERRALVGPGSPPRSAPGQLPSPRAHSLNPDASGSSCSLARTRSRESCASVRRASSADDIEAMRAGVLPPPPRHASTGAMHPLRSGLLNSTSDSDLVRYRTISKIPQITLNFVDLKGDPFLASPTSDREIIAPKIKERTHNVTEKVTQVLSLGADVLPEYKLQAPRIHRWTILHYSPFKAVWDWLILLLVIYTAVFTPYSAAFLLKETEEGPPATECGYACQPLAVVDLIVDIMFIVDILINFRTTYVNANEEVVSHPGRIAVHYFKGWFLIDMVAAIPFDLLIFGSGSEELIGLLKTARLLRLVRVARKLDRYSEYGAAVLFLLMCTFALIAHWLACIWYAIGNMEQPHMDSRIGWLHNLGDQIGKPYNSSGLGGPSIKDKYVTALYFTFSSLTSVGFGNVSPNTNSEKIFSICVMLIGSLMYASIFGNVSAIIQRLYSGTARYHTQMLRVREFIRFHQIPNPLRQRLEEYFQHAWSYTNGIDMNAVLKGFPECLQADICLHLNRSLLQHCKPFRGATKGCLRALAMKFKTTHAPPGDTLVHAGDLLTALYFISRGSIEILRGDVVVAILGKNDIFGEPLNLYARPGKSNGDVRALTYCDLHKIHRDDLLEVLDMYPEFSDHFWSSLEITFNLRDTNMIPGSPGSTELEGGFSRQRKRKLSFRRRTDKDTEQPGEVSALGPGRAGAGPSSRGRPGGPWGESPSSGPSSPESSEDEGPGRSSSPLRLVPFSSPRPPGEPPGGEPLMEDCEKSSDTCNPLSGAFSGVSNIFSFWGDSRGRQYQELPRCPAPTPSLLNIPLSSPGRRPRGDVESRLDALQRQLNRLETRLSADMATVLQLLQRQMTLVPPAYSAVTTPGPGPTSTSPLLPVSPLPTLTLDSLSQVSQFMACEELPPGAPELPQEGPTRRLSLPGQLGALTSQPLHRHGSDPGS
The nature of data set [2]: Aqueous equilibrium solubility in citric acid/disodium phosphate buffer at pH 6.8 at 1 uM after 24 hrs by HPLC method. Format: physicochemical. Particulars: citric acid/disodium phosphate buffer, pH 6.8.
The target in data set [3] is T1, hERG (KCNH2). Kind of data set: Inhibition of human ERG expressed in HEK293 cells at 34 uM by whole-cell patch clamp method relative to control. Format: cell-based. Particulars: HEK293 cells expressing human ERG. In general terms: Patch clamp records ionic current or voltage across a cell membrane.
In data set [4] the test system is Rattus norvegicus. Kind of data set: Clearance in Wistar rat at 1 mg/kg, iv by HPLC-MS/MS analysis relative to hepatic blood flow. Format: ADME, organism-based. The note with it: in vivo.
Data set [5] in a line: Volume of distribution at steady state in Wistar rat at 1 mg/kg, iv by HPLC-MS/MS analysis. Format: ADME, organism-based. Particulars: in vivo, read-out: Vdss.
Data set [6] can be described thus: Mean residence time in Wistar rat at 1 mg/kg, iv by HPLC-MS/MS analysis. It counts as ADME, organism-based. Particulars: in vivo.
Data set [7] in a line: Oral bioavailability in Wistar rat at 3 mg/kg by HPLC-MS/MS analysis. It counts as ADME, organism-based. Particulars: in vivo.
Data set [8] deals with T2, Arachidonate 5-lipoxygenase-activating protein (Homo sapiens, UniProt P20292).
T2 sequence (P20292 whole entry): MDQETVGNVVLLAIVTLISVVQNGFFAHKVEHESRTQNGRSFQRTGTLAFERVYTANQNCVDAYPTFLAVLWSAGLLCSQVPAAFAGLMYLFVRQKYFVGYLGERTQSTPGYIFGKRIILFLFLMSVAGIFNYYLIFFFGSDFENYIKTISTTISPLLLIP
The data set can be described thus: Displacement of [125I]-L-691831 from human FLAP expressed in Sf9 cell membranes after 2 hrs by Topcount method. A general note: In a radioligand displacement assay an active substance lowers the binding of a labelled ligand.

Data set [9] concerns the target T2, Arachidonate 5-lipoxygenase-activating protein. Kind of data set: Inhibition of FLAP in calcimycin-stimulated human whole blood assessed as reduction in LTB4 production pretreated for 15 mins followed by calcimycin addition after 30 mins by ELISA.
Data set [10] in a line: Aqueous kinetic solubility of the compound at pH 7.4. It counts as physicochemical. The note with it: buffer.
A short description of data set [11]: Stability in human liver microsomes at 1 uM pretreated for 10 mins followed by NADPH addition after 60 mins by LC/MS analysis relative to hepatic blood flow. Format: ADME, microsome. Particulars: read-out: Stability.
In data set [12] the target is T1, hERG (KCNH2). Kind of data set: Inhibition of human ERG expressed in HEK293 cells at 30 uM by whole-cell patch clamp method relative to control. Particulars: HEK293 cells expressing human ERG. Format: cell-based.
Data set [13] relates to Rattus norvegicus. The data set can be described thus: Clearance in Sprague-Dawley rat at 1 mg/kg, iv by HPLC-MS/MS analysis relative to hepatic blood flow. It counts as ADME, organism-based. Particulars: in vivo.
Data set [14] is described as follows: Volume of distribution at steady state in Sprague-Dawley rat at 1 mg/kg, iv by HPLC-MS/MS analysis. Format: ADME, organism-based. Particulars: in vivo, read-out: Vdss.
Data set [15] in a line: Mean residence time in Sprague-Dawley rat at 1 mg/kg, iv by HPLC-MS/MS analysis. The note with it: in vivo. Format: ADME, organism-based.
Data set [16] is described as follows: Oral bioavailability in Sprague-Dawley rat at 3 mg/kg by HPLC-MS/MS analysis. It counts as ADME, organism-based. Particulars: in vivo.
A short description of data set [17]: Clearance in human hepatocytes at 1 uM measured after 1 hr by LC/MS analysis relative to hepatic blood flow. Format: ADME, cell-based, Hepatocyte.

Take `C[C@@](c1ccc(-c2cnc(N)nc2)cc1)(c1noc(N2CCC(O)CC2)n1)C1CC1`: the inhibition at 5 min, 34 µM on hERG (KCNH2) [1] worked out at 30%. The thermodynamic solubility at 24 h, 1 µM in data set [2] is 111 µg/mL (≈ 273 µM). The inhibition at 34 µM at hERG (KCNH2) [3] is 30%. In the data set with Rattus norvegicus [4], this compound returned a CL of 33%. The Vd in data set [5] amounted to 1.6 L/kg. In [6], the MRT was determined as 1.6 h. Moreover, the bioavailability in [7] stood at 75%.

As for `CC(C)[C@](C)(c1ccc(-c2cnc(N)nc2)nc1)c1noc(-c2cnn(CC(C)(C)O)c2)n1`, the figures for the negative logarithm of the IC50 (pIC50) in [8] and in [9] were 7.89 and 7.39, respectively. In addition, the Kinetic_solubility entry in [10] is recorded as “Soluble”. Moreover, the hepatic extraction ratio at 1 h, 1 µM was < 0.3 in data set [11] and 0.3 in data set [17]. Moreover, in data set [2], the thermodynamic solubility at 24 h, 1 µM is 210 µg/mL (≈ 468 µM). Further, testing at 30 µM against hERG (KCNH2) [12] gave an inhibition of 21%. This compound also displayed a CL in the data set on Rattus norvegicus [13] of 10%. In addition, the Vd in data set [14] amounted to 2 L/kg. For the same compound, in data set [15], the MRT worked out at 4.6 h. In addition, the bioavailability in data set [16] stood at 114%.

In general, inhibition refers to the percentage by which the read-out fell short of the control. A low value points to little suppression. Broadly, the solubility (thermodynamic) is the concentration in solution at equilibrium with solid. The term MRT denotes a mean duration of stay, worked out from the concentration-time curve. By pIC50 is commonly meant the IC50 on a negative log10 scale, so that one unit is a factor of ten.
